In PMC3271735 (Journal of the American Chemical Society, 2012):

How the values were obtained:
Assay type in all cases: biochemical
Conditions in all cases: 100 μM inhibitor
Sirt2 = molecular target: T1, Sirt2 (Homo sapiens, UniProt Q8IXJ6); experiment: Sirt2 inhibition assay
T1 sequence (Q8IXJ6 1-389): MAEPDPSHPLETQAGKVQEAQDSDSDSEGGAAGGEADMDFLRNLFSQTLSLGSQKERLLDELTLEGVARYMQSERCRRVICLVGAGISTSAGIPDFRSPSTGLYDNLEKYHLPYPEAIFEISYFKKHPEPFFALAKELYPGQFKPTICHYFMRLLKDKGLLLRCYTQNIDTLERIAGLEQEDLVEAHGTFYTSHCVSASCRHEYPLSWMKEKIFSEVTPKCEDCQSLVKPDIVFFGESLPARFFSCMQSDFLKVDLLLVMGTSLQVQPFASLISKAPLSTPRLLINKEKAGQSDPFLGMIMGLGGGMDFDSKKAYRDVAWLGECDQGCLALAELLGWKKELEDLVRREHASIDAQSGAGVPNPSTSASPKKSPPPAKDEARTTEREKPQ

Sirt1 = molecular target: T2, Sirt1 (Homo sapiens, UniProt Q96EB6); experiment: Sirt1 inhibition assay
T2 sequence (Q96EB6 1-747): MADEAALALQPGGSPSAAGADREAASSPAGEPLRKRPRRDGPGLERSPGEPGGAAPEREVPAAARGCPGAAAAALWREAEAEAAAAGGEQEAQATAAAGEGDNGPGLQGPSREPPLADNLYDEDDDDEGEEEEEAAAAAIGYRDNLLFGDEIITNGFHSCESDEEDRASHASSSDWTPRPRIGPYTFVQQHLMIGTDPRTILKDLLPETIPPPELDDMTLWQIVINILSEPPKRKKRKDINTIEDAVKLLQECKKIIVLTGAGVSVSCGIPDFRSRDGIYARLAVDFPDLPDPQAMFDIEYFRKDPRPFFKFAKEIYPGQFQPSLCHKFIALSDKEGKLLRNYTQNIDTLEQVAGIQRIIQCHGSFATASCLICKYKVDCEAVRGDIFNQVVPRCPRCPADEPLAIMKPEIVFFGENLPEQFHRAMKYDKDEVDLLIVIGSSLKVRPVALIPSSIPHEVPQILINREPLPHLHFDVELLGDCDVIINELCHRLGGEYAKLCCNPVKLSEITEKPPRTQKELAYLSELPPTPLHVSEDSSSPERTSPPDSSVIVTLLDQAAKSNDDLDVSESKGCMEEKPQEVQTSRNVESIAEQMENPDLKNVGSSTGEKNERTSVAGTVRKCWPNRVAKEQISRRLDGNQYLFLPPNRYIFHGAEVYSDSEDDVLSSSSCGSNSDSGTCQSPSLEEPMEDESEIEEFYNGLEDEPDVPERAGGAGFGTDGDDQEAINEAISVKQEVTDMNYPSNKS

Sirt3 = molecular target: T3, Sirt3 (Homo sapiens, UniProt Q9NTG7); experiment: Sirt3 inhibition assay
T3 sequence (Q9NTG7 1-399): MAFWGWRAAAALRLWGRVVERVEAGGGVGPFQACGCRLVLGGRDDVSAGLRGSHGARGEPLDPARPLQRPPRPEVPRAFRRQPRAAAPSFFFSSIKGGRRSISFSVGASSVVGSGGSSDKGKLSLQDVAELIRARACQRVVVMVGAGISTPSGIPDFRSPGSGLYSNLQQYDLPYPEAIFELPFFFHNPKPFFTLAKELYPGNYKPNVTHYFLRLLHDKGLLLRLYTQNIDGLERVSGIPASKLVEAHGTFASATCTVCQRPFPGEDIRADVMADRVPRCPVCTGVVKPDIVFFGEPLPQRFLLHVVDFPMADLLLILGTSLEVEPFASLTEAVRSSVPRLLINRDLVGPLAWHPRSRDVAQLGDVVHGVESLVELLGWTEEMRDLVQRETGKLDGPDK

C[C@H](NC(=O)[C@H](CCCCN)NC(=O)CNC(=O)CNC(=O)[C@@H](NC(=O)[C@H](CO)NC(=O)[C@H](CCCCNC(=S)CCC(=O)O)NC(=O)[C@H](CCCNC(=N)N)NC(=O)[C@H](C)NC(=O)[C@@H](NC(=O)[C@H](CCC(N)=O)NC(=O)[C@@H](N)CCCCN)[C@@H](C)O)[C@@H](C)O)C(=O)O [H3K9TSu, KQTAR(TSuK)STGGKA]
does not inhibit: inhibition of Sirt2 at 100 μM (Sirt2) | inhibition of Sirt1 at 100 μM (Sirt1) | inhibition of Sirt3 at 100 μM (Sirt3)
